Measurements from patent US12202840B2, “Compounds for the treatment or alleviation of disorders associated with Tau aggregates” (AC Immune SA, priority 2018, dated 2025).

What was measured:
Format in all cases: in vivo
rTg4510 mice [1] = assay: Morris Water Maze behavioral test, study of Example 1 and Example 12; conditions: once daily by gavage 12.5 weeks, Example 1 at 7 and 20 mg/kg, Example 12 at 20 mg/kg, vs vehicle treated rTg4510, FIG. 1
Source text: (§1) Double transgenic rTg4510 mice are an aggressive Tauopathy model expressing the full-length human Tau carrying the P301L mutation (Tau4R0N-P301L) under the control of the tetracycline-inducible CaMKII promoter (Ramsden et al., J. Neurosci., 2005⋅25(46):10637-10647). Wild-type animals and single transgenic mice expressing only the tetracycline-controlled transactivator (tTA) were used as genotype controls. The study comprised 6 treatment groups (n=20 mice/group) with the following group distribution (see Table 5). Compounds or vehicle control were administered once daily by gavage for 12.5 weeks starting at the age of 5.5 weeks. The Morris Water Maze (MWM) behavioral test was performed after 12.5 weeks of treatment over 5 consecutive days. During MWM testing daily dosing was continued. Behavioral testing (MWM) was performed only on female mice (around n=11 female/group). […]
The MWM was performed in a circular tank, measuring 48″ in diameter. […] Trials were video recorded and analyzed by a computer program (WaterMaze; Actimetrics, Wilmette, Ill.). […] Percent time spent in each quadrant (target, left and right adjacent, and opposite) were calculated for probe trials. […] Data were analyzed by 2-way ANOVA followed by post-hoc comparisons and shown statistics refers to differences compared to vehicle treated rTg4510 mice.

rTg4510 mice [2] = assay: Cortex size (cortical atrophy), study of Example 1 and Example 12; conditions: once daily by gavage 12.5 weeks, Example 1 at 7 and 20 mg/kg, Example 12 at 20 mg/kg, vs vehicle treated rTg4510, FIG. 2A
Source text: as §1, with “weeks.” for “weeks. The Morris Water Maze (MWM) behavioral test was performed after 12.5 weeks of treatment over 5 consecutive days. During MWM testing daily dosing was continued. Behavioral testing (MWM) was performed only on female mice (around n=11 female/group).”
(§2) After behavioral testing, mice were deeply anesthetized by standard injectable anesthesia and transcardially perfused with cold PBS. […] Sections from 7 mice per group, excluding wild-type animals, were collected from around 10 mediolateral levels starting 0.2 mm lateral from midline, mounted on slides, and used to quantify the cortex size. […] To reduce auto-fluorescence of the tissue, sections were incubated with a solution of 0.1% Sudan Black (Sigma) in 70% ethanol for 15 minutes at room temperature, then washed four times 5 minutes in PBS, and mounted using ProLong Gold Antifade reagent (Invitrogen). Staining was visualized on the Nikon Eclipse Ti microscope, imaged using Nikon DS-Fi2 camera, and quantified using the NIS-Element AR4.13.1 software. […]

misfolded Tau (MC1) = target: T1, misfolded Tau (MC1) (Homo sapiens, UniProt P10636, P618L); assay: Misfolded Tau by MC1 histology, study of Example 1 and Example 12; conditions: rTg4510 mice, once daily by gavage 12.5 weeks; Example 1 at 7 and 20 mg/kg, Example 12 at 20 mg/kg; vs vehicle treated rTg4510; FIG. 2B
T1 construct: expressing the full-length human Tau carrying the P301L mutation (Tau4R0N-P301L); from tissue; host or cells: brain (cortex) of double transgenic rTg4510 mice
Source text: as §1, with “weeks.” for “weeks. The Morris Water Maze (MWM) behavioral test was performed after 12.5 weeks of treatment over 5 consecutive days. During MWM testing daily dosing was continued. Behavioral testing (MWM) was performed only on female mice (around n=11 female/group).”
as §2

CD68 positive microglia = assay: CD68 histology (neuroinflammation), study of Example 1 and Example 12; conditions: rTg4510 mice, once daily by gavage 12.5 weeks; Example 1 at 7 and 20 mg/kg, Example 12 at 20 mg/kg; vs vehicle treated rTg4510; FIG. 3
Source text: Double transgenic rTg4510 mice are an aggressive Tauopathy model expressing the full-length human Tau carrying the P301L mutation (Tau4R0N-P301L) under the control of the tetracycline-inducible CaMKII promoter (Ramsden et al., J. Neurosci., 2005⋅25(46):10637-10647). Wild-type animals and single transgenic mice expressing only the tetracycline-controlled transactivator (tTA) were used as genotype controls. The study comprised 6 treatment groups (n=20 mice/group) with the following group distribution (see Table 5). Compounds or vehicle control were administered once daily by gavage for 12.5 weeks starting at the age of 5.5 weeks. The Morris Water Maze (MWM) behavioral test was performed after 12.5 weeks of treatment over 5 consecutive days. During MWM testing daily dosing was continued. Behavioral testing (MWM) was performed only on female mice (around n=11 female/group). Measurements of cortical atrophy and histology for misfolded Tau (MC1) and CD68 were performed on 7 animals/group excluding wild-type animals.
A systematic random set of sections for five sagittal sections per animal (a total of 175 sections) was used for CD68 histological staining. […] Data were analyzed by 1-way ANOVA followed by post-hoc comparisons and shown statistics refers to differences compared to vehicle treated rTg4510 mice.

T1 sequence (P10636 1-383 isoform P10636-6 P243L): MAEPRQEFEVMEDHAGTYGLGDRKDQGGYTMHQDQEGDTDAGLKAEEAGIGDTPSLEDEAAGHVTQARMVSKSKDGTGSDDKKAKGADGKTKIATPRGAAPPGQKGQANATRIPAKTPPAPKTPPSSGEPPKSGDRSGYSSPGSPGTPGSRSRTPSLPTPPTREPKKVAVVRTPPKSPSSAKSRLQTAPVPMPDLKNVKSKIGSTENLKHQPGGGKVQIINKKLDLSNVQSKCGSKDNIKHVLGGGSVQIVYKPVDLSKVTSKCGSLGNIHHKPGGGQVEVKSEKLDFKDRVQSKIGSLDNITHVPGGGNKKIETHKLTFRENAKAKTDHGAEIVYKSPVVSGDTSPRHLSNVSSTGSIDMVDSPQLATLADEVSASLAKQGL

| Structure (SMILES) | percentage of time spent in the target quadrant (MWM probe trial) (rTg4510 mice [1]) | cortex size (rTg4510 mice [2]) | misfolded Tau (MC1 histology) (misfolded Tau (MC1)) | CD68 positive microglia (CD68 positive microglia) |
| --- | --- | --- | --- | --- |
| CC(C)N1CCc2c(c3ccc(Nc4ccc5nc(N6CCOCC6)sc5c4)nc3n2C)C1 [Example 1] | dose-dependent increase | dose-dependent increase | dose-dependent decrease | decrease |
| CN(C)[C@@H]1CCc2c(c3ccc(Nc4ccc5nc(N6CCOCC6)sc5c4)nc3n2C)C1 [Example 12] | significant increase | significant increase | significant decrease | significant decrease |
